{"source": "patent US5912247A", "about": "“Quinazoline compound and anti-tumor agent containing said compound as an active ingredient” (Kanebo, Ltd., priority 1995, dated 1999)", "system": "Colon 26 solid tumor", "assay": "Inhibitory activity of dye accumulation in the solid tumor tissue (inhibition of the tumor blood flow)", "format": "in vivo, Male BALB/c mice", "design": "key to Inhibitory activity of dye accumulation into solid tumor: +: The average absorbance in the test group is significantly smaller than the average absorbance in the control group.; -: There is no significant difference in the average absorbance between the test group and the control group", "conditions": "intravenous, Evans blue 1 hour after administration", "experimental": "Inhibitory activity of dye accumulation in the solid tumor tissue (inhibition of the tumor blood flow): a) Materials: Test Animal: Male BALB/c mice (weighing 21-27 g, six mice per group) Tumor: Colon 26 solid tumor b) Test Method: Colon 26 solid tumor was cut in a size of about 1 mm square. The pieces of solid tumor were treated with a 0.25% collagenase solution and 0.02% deoxyribonuclease solution at 37° C. for 1.5 hour to give a cell suspension of colon 26 solid tumor cells. The cell suspension was adjusted to 3×10^6 cells/ml and the cell suspension (100 μl) was subcutaneously inoculated on the right back of male BALB/c mice. Ten days after the transplantation, the longitudinal size of the tumor was measured, and when the longitudinal size of the tumor reached about 10 mm, the mice were randomized. To the mice in test groups, the test compound was intravenously administered in an amount of 10 mg/kg or 1.25 mg/kg. The test compound was administered in the form of a solution in saline (in the test solution of Test Compound BF and BK, an equimolar amount of fumaric acid was further added, and in the test solution of Test Compound BN, an equimolar amount of hydrochloric acid was further added). To the mice in the control group, only saline was administered intravenously. One hour after the administration, 3% Evans blue-saline solution was injected intravenously via the tail vein of the mice in a volume of 0.1 ml per 10 g of the body weight of mouse, and 5 minutes later the mice were killed by luxation of the cervical vertebrae. After removing the tumor, the tumor was weighed. To extract Evans blue, the tumor was suspensed in 0.5% aqueous sodium sulfate (1.5 ml per 1 g of the tumor) and acetone (3.5 ml per 1 g of tumor), and then the tumor was cut into small pieces. After allowing to stand at room temperature overnight, the suspension were centrifuged at 3,000 rpm for 10 minutes to extract Evans blue, and the absorbance of the supernatant was read at 630 nm. […] (-): There is no significant difference in the average absorbance between the test group and the control group.", "note": "Structures can show the parent of a compound that is named as a salt."}
{"smiles": "CC(=O)O.OCC(O)COc1nc(N2CCNCC2)nc2ccccc12", "note": "(racemic) [Compound BB, 4-[(RS)-(2,3-Dihydroxypropyl)oxy]-2-(1-piperazinyl)quinazoline monoacetate]", "values": [{"measurement": "Inhibitory activity of dye accumulation into solid tumor", "setting": "1.25 mg/kg", "result": "+"}, {"measurement": "Inhibitory activity of dye accumulation into solid tumor", "setting": "10 mg/kg", "result": "+"}]}
{"smiles": "CC(=O)O.C[C@H](O)[C@@H](C)Oc1nc(N2CCNCC2)nc2ccccc12", "note": "(racemic) [Compound BC, 4-[(2RS,3SR)-(3-Hydroxybutan-2-yl)oxy]-2-(1-piperazinyl)quinazoline monoacetate]", "values": [{"measurement": "Inhibitory activity of dye accumulation into solid tumor", "setting": "1.25 mg/kg", "result": "+"}, {"measurement": "Inhibitory activity of dye accumulation into solid tumor", "setting": "10 mg/kg", "result": "+"}]}
{"smiles": "C[C@@H](O)[C@H](O)COc1nc(N2CCNCC2)nc2ccccc12", "note": "(racemic) [Compound BF, 4-[(2RS,3RS)-(2,3-Dihydroxybutan-1-yl)oxy]-2-(1-piperazinyl)quinazoline]", "values": [{"measurement": "Inhibitory activity of dye accumulation into solid tumor", "setting": "1.25 mg/kg", "result": "+"}, {"measurement": "Inhibitory activity of dye accumulation into solid tumor", "setting": "10 mg/kg", "result": "+"}]}
{"smiles": "OC[C@H](O)[C@H](O)COc1nc(N2CCNCC2)nc2ccccc12", "note": "(racemic) [Compound BK, 4-[(2RS,3SR)-(2,3,4-Trihydroxybutan-1-yl)oxy]-2-(1-piperazinyl)quinazoline]", "values": [{"measurement": "Inhibitory activity of dye accumulation into solid tumor", "setting": "1.25 mg/kg", "result": "+"}, {"measurement": "Inhibitory activity of dye accumulation into solid tumor", "setting": "10 mg/kg", "result": "+"}]}
{"smiles": "CC(=O)O.O[C@@H]1CCC[C@H]1Oc1nc(N2CCNCC2)nc2ccccc12", "note": "(relative stereo) [Compound AA, 4-[trans-(2-Hydroxycyclopentan-1-yl)oxy]-2-(1-piperazinyl)quinazoline monoacetate]", "values": [{"measurement": "Inhibitory activity of dye accumulation into solid tumor", "setting": "1.25 mg/kg", "result": "+"}, {"measurement": "Inhibitory activity of dye accumulation into solid tumor", "setting": "10 mg/kg", "result": "+"}]}
{"smiles": "CC(=O)O.O[C@H]1CCC[C@H]1Oc1nc(N2CCNCC2)nc2ccccc12", "note": "(relative stereo) [Compound AB, 4-[cis-(2-Hydroxycyclopentan-1-yl)oxy]-2-(1-piperazinyl)quinazoline monoacetate]", "values": [{"measurement": "Inhibitory activity of dye accumulation into solid tumor", "setting": "1.25 mg/kg", "result": "-"}, {"measurement": "Inhibitory activity of dye accumulation into solid tumor", "setting": "10 mg/kg", "result": "+"}]}
{"smiles": "CC(=O)O.O[C@@H]1COC[C@H]1Oc1nc(N2CCNCC2)nc2ccccc12", "note": "(relative stereo) [Compound AF, 4-[trans-(4-Hydroxytetrahydrofuran-3-yl)oxy]-2-(1-piperazinyl)quinazoline monoacetate]", "values": [{"measurement": "Inhibitory activity of dye accumulation into solid tumor", "setting": "1.25 mg/kg", "result": "+"}, {"measurement": "Inhibitory activity of dye accumulation into solid tumor", "setting": "10 mg/kg", "result": "+"}]}
{"smiles": "O[C@@H]1COC[C@@H]1Oc1nc(N2CCNCC2)nc2ccccc12", "note": "(relative stereo) [Compound AG, 4-[cis-(4-Hydroxytetrahydrofuran-3-yl)oxy]-2-(1-piperazinyl)quinazolinemonoacetate]", "values": [{"measurement": "Inhibitory activity of dye accumulation into solid tumor", "setting": "1.25 mg/kg", "result": "+"}, {"measurement": "Inhibitory activity of dye accumulation into solid tumor", "setting": "10 mg/kg", "result": "+"}]}
{"smiles": "O[C@@H]1[C@@H](Oc2nc(N3CCNCC3)nc3ccccc23)CC[C@@H]1O", "note": "(relative stereo) [Compound AL, 4-[(t-2,t-3-Dihydroxycyclopentan-r-1-yl)oxy]-2-(1-piperazinyl)quinazoline monoacetate]", "values": [{"measurement": "Inhibitory activity of dye accumulation into solid tumor", "setting": "1.25 mg/kg", "result": "+"}, {"measurement": "Inhibitory activity of dye accumulation into solid tumor", "setting": "10 mg/kg", "result": "+"}]}
{"smiles": "O[C@@H]1[C@H](O)[C@@H](Oc2nc(N3CCNCC3)nc3ccccc23)C[C@H]1O", "note": "(relative stereo) [Compound AO, 4-[(t-2,t-3,c-4-Trihydroxycyclopentan-r-1-yl)-oxy]-2-(1-piperazinyl)quinazoline 1/2 fumarate]", "values": [{"measurement": "Inhibitory activity of dye accumulation into solid tumor", "setting": "1.25 mg/kg", "result": "+"}, {"measurement": "Inhibitory activity of dye accumulation into solid tumor", "setting": "10 mg/kg", "result": "+"}]}
{"smiles": "CC(=O)O.OC1CCC(Oc2nc(N3CCNCC3)nc3ccccc23)C1", "note": "(stereo not shown) [Compound AC, 4-[(3-Hydroxycyclopentan-1-yl)oxy]-2-(1-piperazinyl)quinazoline monoacetate]", "values": [{"measurement": "Inhibitory activity of dye accumulation into solid tumor", "setting": "1.25 mg/kg", "result": "+"}, {"measurement": "Inhibitory activity of dye accumulation into solid tumor", "setting": "10 mg/kg", "result": "+"}]}
